Read-outs that look alike come from different tables or passages of the source.
What was measured:
p38a/MK2 = p38a/MK2 (Homo sapiens (Human), UniProt P49137+Q16539); assay: biochemical; settings: 10-point 1:3 dilution, 10 μM ATP, 2 h incubation
Procedure: (§1) Expression vectors of the recombinant MK2 and PRAK kinases were constructed by cloning of the codon optimized gene sequences of MK2 (Uniprot ID P49137, amino acid fragment F46-H400), or PRAK (Uniprot ID Q81W41, amino acid fragment M1-Q471) into pGEX-4T1 (GE) for over expression of these kinases with N-terminal GST-tag. Protein expression was carried out in E. coli BL21 by growing the hosts in TB medium, induction of protein expression with 0.5 mM IPTG at approximate 0.8 OD600, and incubation of the cultures at 18° C. for 14-20 hours afterwards. The harvested cells were resuspended in […] of Lysis buffer (50 mM Tris-HCl, pH 8.0, 500 mM NaCl, 1 mM DTT, 5% glycerol, and 1 mM PMSF) per gram of wet cell mass and homogenized at 4° C. in a microfluidizer (ATS, Suzhou, China) at 14,000 psi pressure, 3 passes. The cell lysates were clarified by centrifugation and the supernatants containing the GST-fusion proteins were purified by affinity chromatography using GSH-Sepharose (GE) gravity flow columns pre-equilibrated in Buffer A (50 mM Tris-HCl, pH 8.0, 500 mM NaCl, 1 mM DTT, and 5% glycerol). After thorough washing of the columns with Buffer A, the bound GST-proteins were eluted by Buffer B (50 mM Tris, pH 8.0, 500 mM NaCl, 1 mM DTT, 5% glycerol, 10 mM glutathione), followed by size-exclusion purification on Superdex 200 column equilibrated in Buffer A. The purified proteins were concentrated to approximately 1 mg/ml and stored at −80° C.
(§2) This study evaluates the inhibitory potency of invention compound on p38/MK2 pathway vs p38/PRAK pathway. More specially the compound concentration (IC50) was determined that inhibited half of the maximal activation of MK2 or PRAK by p38. MK2 activation study was set up without or with a serial of 10-point 1:3 dilution of invention compound at top dose of 1 or 10 μM, and PRAK activation study was set up without or with a serial of 10-point 1:3 dilution of invention compound at top dose of 300 μM. The MIK2 and PRAK activity were determined by the phosphorylation level of HSP27 peptide conjugated with FITC.

p38a/PRAK = p38a/PRAK (Homo sapiens (Human), UniProt Q16539); assay: biochemical; settings: 10-point 1:3 dilution, top dose 300 μM; 10 μM ATP, 2 h incubation; read-out: p38a/PRAK Enzyme pIC50 (converted)
Chain of p38a/PRAK (Q16539 whole entry): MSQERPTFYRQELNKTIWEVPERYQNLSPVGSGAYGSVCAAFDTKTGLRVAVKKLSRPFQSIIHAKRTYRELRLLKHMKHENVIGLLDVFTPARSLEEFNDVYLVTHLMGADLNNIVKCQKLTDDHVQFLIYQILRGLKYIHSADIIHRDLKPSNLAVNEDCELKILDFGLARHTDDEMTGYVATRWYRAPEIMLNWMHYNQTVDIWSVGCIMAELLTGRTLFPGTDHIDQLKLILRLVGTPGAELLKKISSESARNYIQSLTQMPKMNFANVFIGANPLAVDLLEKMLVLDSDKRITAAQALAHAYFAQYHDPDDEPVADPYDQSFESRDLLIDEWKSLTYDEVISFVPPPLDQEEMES
Procedure: as §1, §2

[1] = top dose 1 μM, read-out: p38a/MK2 (1 μM) Enzyme pIC50 (converted)

Chain of p38a/MK2 (Q16539 whole entry, the tested form may be a part): as the sequence (Q16539 whole entry) above
Chain of p38a/MK2 (P49137 46-400): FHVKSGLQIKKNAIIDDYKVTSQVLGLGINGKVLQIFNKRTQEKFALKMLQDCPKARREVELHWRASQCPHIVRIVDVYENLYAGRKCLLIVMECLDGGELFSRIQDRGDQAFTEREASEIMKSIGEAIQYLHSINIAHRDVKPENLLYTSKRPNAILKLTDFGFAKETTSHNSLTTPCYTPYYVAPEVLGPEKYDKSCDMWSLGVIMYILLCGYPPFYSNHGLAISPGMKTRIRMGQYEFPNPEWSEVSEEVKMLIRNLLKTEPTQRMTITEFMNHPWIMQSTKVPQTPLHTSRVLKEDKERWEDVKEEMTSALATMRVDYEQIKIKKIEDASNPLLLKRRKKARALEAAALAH

SMILES	IC50 (p38a/MK2; [1])	IC50 (p38a/PRAK)	IC50 (p38a/MK2; top dose 10 μM, read-out: p38a/MK2 (10 μM) Enzyme pIC50 (converted))
[2H]C([2H])(Oc1cc(C)n(-c2cc(-n3cccc(C(C)(C)O)c3=O)ncc2C)c(=O)c1Cl)c1ncc(F)cc1F (single isomer, unassigned) [Example 18B, rel-3″-chloro-4″-((3,5-difluoropyridin-2-yl)methoxy-d2)-3-(2-hydroxypropan-2-yl)-5′,6″-dimethyl-2H,2″H-[1,2′:4′,1″-terpyridine]-2,2″-dione]	> 0.1 µM	> 316 µM	
Cc1cnc(-n2cccc(C(C)(C)O)c2=O)cc1-n1c(C)cc(OCc2ncc(F)cc2F)c(Cl)c1=O (single isomer, unassigned) [Example 1A, rel-3-chloro-4-[(3,5-difluoropyridin-2-yl)methoxy]-2′-[3-(2-hydroxypropan-2-yl)-2-oxopyridin-1-yl]-5′,6-dimethyl-[1,4′-bipyridin]-2-one]	0.002 µM	3.16 µM	0.00316 µM
Cc1ccc(-n2cccc(C(C)(C)O)c2=O)cc1-n1c(C)cc(OCc2ncc(F)cc2F)c(Cl)c1=O (single isomer, unassigned) [Example 2A, rel-3-chloro-4-[(3,5-difluoropyridin-2-yl)methoxy]-1-{5-[3-(2-hydroxypropan-2-yl)-2-oxopyridin-1-yl]-2-methylphenyl}-6-methylpyridin-2-one]	0.00398 µM	1.26 µM	
Cc1cnc(-n2cncc(C(C)(C)O)c2=O)cc1-n1c(C)cc(OCc2ncc(F)cc2F)c(Cl)c1=O (single isomer, unassigned) [Example 10A, rel-3-chloro-4-[(3,5-difluoropyridin-2-yl)methoxy]-2′-[5-(2-hydroxypropan-2-yl)-6-oxopyrimidin-1-yl]-5′,6-dimethyl-[1,4′-bipyridin]-2-one]	0.1 µM	3.98 µM	
Cc1ncc(-n2cccc(C(C)(C)O)c2=O)cc1-n1c(C)cc(OCc2ncc(F)cc2F)c(Cl)c1=O (single isomer, unassigned) [Example 16A, rel-5′-{3-chloro-4-[(3,5-difluoropyridin-2-yl)methoxy]-6-methyl-2-oxopyridin-1-yl}-3-(2-hydroxypropan-2-yl)-6′-methyl-[1,3′-bipyridin]-2-one]	0.2 µM	7.94 µM	
Cc1cnc(-n2ccnc(C(C)(C)O)c2=O)cc1-n1c(C)cc(OCc2ncc(F)cc2F)c(Cl)c1=O (single isomer, unassigned) [Example 5A, rel-3-chloro-4-[(3,5-difluoropyridin-2-yl)methoxy]-2′-[3-(2-hydroxypropan-2-yl)-2-oxopyrazin-1-yl]-5′,6-dimethyl-[1,4′-bipyridin]-2-one]	0.00251 µM	2.51 µM	
Cc1cnc(-n2nccc(C(C)(C)O)c2=O)cc1-n1c(C)cc(OCc2ncc(F)cc2F)c(Cl)c1=O (single isomer, unassigned) [Example 9B, rel-3-chloro-4-[(3,5-difluoropyridin-2-yl)methoxy]-2′-[5-(2-hydroxypropan-2-yl)-6-oxopyridazin-1-yl]-5′,6-dimethyl-[1,4′-bipyridin]-2-one]	> 1 µM	> 316 µM	
COCc1cc(OCc2ncc(F)cc2F)c(Cl)c(=O)n1-c1cc(-n2cccc(C(C)(C)O)c2=O)ncc1C (single isomer, unassigned) [Example 3B, rel-3-chloro-4-[(3,5-difluoropyridin-2-yl)methoxy]-2′-[3-(2-hydroxypropan-2-yl)-2-oxopyridin-1-yl]-6-(methoxymethyl)-5′-methyl-[1,4′-bipyridin]-2-one]	> 1 µM	> 316 µM	

More lines, main results first:

IC50 (p38a/MK2; [1])	IC50 (p38a/PRAK)	SMILES	IC50 (p38a/MK2; top dose 10 μM, read-out: p38a/MK2 (10 μM) Enzyme pIC50 (converted))
> 0.1 µM	> 316 µM	[2H]C([2H])(Oc1cc(C)n(-c2cc(-n3ccc(F)c(C(C)(C)O)c3=O)ncc2C)c(=O)c1Cl)c1ncc(F)cc1F (single isomer, unassigned) [Example 26B, rel-3-chloro-4-[(3,5-difluoropyridin-2-yl)(2H2)methoxy]-2′-[4-fluoro-3-(2-hydroxypropan-2-yl)-2-oxopyridin-1-yl]-5′,6-dimethyl-[1,4′-bipyridin]-2-one]	
> 0.1 µM	> 316 µM	[2H]C([2H])(Oc1cc(C)n(-c2cc(-n3ccnc(C(C)(C)O)c3=O)ncc2C)c(=O)c1Cl)c1ncc(F)cc1Cl (single isomer, unassigned) [Example 22B, rel-3-chloro-4-((3-chloro-5-fluoropyridin-2-yl)methoxy-d2)-2′-(3-(2-hydroxypropan-2-yl)-2-oxopyrazin-1(2H)-yl)-5′,6-dimethyl-2H-[1,4′-bipyridin]-2-one]	
0.00158 µM	6.31 µM	Cc1cnc(-n2cccc(C(C)C)c2=O)cc1-n1c(C)cc(OCc2ncc(F)cc2F)c(Cl)c1=O (single isomer, unassigned) [Example 17A, rel-3-chloro-4-[(3,5-difluoropyridin-2-yl)methoxy]-2′-(3-isopropyl-2-oxopyridin-1-yl)-5′,6-dimethyl-[1,4′-bipyridin]-2-one]	
0.00251 µM	6.31 µM	[2H]C([2H])(Oc1cc(C)n(-c2cc(-n3cccc(C(C)(C)O)c3=O)ncc2C)c(=O)c1Cl)c1ncc(F)cc1Cl (single isomer, unassigned) [Example 23A, rel-4′-{3-chloro-4-[(3-chloro-5-fluoropyridin-2-yl)(2H2)methoxy]-6-methyl-2-oxopyridin-1-yl}-3-(2-hydroxypropan-2-yl)-5′-methyl-[1,2′-bipyridin]-2-one]	
> 1 µM	> 316 µM	[2H]C([2H])(Oc1cc(C)n(-c2cc(-n3cccc(C(C)(C)O)c3=O)ncc2C)c(=O)c1Cl)c1ncc(Cl)cc1F (single isomer, unassigned) [Example 21B, rel-3-chloro-4-[(5-chloro-3-fluoropyridin-2-yl)(2H2)methoxy]-2′-[3-(2-hydroxypropan-2-yl)-2-oxopyridin-1-yl]-5′,6-dimethyl-[1,4′-bipyridin]-2-one]	
> 0.1 µM	> 316 µM	[2H]C([2H])(Oc1cc(C)n(-c2cc(-n3ccnc(C(C)(C)O)c3=O)ncc2C)c(=O)c1Cl)c1ncc(C)cc1F (single isomer, unassigned) [Example 28B, rel-3-chloro-4-[(3-fluoro-5-methylpyridin-2-yl)(2H2)methoxy]-2′-[3-(2-hydroxypropan-2-yl)-2-oxopyrazin-1-yl]-5′,6-dimethyl-[1,4′-bipyridin]-2-one]	
0.00398 µM	6.31 µM	Cc1cnc(-n2cccc(C(C)(C)O)c2=O)cc1-n1c(C)nc(OCc2ncc(F)cc2F)c(Cl)c1=O (single isomer, unassigned) [Example 25A, rel-4′-{5-chloro-4-[(3,5-difluoropyridin-2-yl)methoxy]-2-methyl-6-oxopyrimidin-1-yl}-3-(2-hydroxypropan-2-yl)-5′-methyl-[1,2′-bipyridin]-2-one]	
> 0.1 µM	> 316 µM	[2H]C([2H])(Oc1cc(C)n(-c2cc(-n3cccc(C(C)(C)O)c3=O)ncc2C)c(=O)c1Cl)c1ncc(F)cc1Cl (single isomer, unassigned) [Example 23B, rel-4′-{3-chloro-4-[(3-chloro-5-fluoropyridin-2-yl)(2H2)methoxy]-6-methyl-2-oxopyridin-1-yl}-3-(2-hydroxypropan-2-yl)-5′-methyl-[1,2′-bipyridin]-2-one]	
> 1 µM	> 316 µM	Cc1ncc(-n2cccc(C(C)(C)O)c2=O)cc1-n1c(C)cc(OCc2ncc(F)cc2F)c(Cl)c1=O (single isomer, unassigned) [Example 16B, rel-5′-{3-chloro-4-[(3,5-difluoropyridin-2-yl)methoxy]-6-methyl-2-oxopyridin-1-yl}-3-(2-hydroxypropan-2-yl)-6′-methyl-[1,3′-bipyridin]-2-one]	
